The results in this text go back to PubChem BioAssay (NCI).

Several values for one entry are separate records, joined by “and”; a condition that tells them apart may be missing. Identical values can stand only once.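 These data come from cells grown in 96-well plates and exposed to compound for 48 hours at five concentrations. GI50 is the concentration that inhibits growth by half. TGI is the concentration that stops growth completely.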

Some test systems named below: NCI/ADR-RES ovarian; SF-539 CNS; ACHN renal; HOP-62 NSCLC; SNB-19 CNS; NCI-H23 lung; OVCAR-4 ovarian; MALME-3M melanoma; U251 CNS; HOP-92 NSCLC.
Holding throughout (assay): NCI tumour cell line growth inhibition, 48 h

For the molecule `COc1cc(NC(C)CCCN)c2ncccc2c1` (stereo not given), the TGI in the assay with NCI/ADR-RES ovarian, in the assay with SF-539 CNS, in the assay with ACHN renal, in the assay with HOP-62 NSCLC, with SNB-19 CNS and with NCI-H23 lung was greater than 100 µM each time. In addition, the TGI in the assay with OVCAR-4 ovarian was greater than 100 µM; in the assay with MALME-3M melanoma, 35.7 µM and 60.9 µM; in the assay with U251 CNS, greater than 100 µM; in the assay on HOP-92 NSCLC it was greater than 100 µM. Moreover, the GI50 with HOP-62 NSCLC was 43.6 µM and > 91.6 µM; in the assay with SNB-19 CNS, 39.8 µM and > 100 µM; with MALME-3M melanoma it was 19.3 µM and 44.4 µM; in the assay with U251 CNS, 39 µM and 86.1 µM; in the assay with HOP-92 NSCLC, 27.2 µM and 62.6 µM.

For `CC(=O)OC[C@]12CC[C@@H](C(=O)CBr)[C@@H]1[C@H]1CC[C@@H]3[C@@]4(C)CCCNC(C)(C)[C@@H]4CC[C@@]3(C)[C@]1(C)CC2`, the GI50 in the assay with NCI/ADR-RES ovarian was 4.89 µM; in the assay with SF-539 CNS, 2.42 µM; in the assay on ACHN renal it was 2.02 µM; in the assay on HOP-62 NSCLC, 14.3 µM; in the assay with SNB-19 CNS, 11.5 µM; with NCI-H23 lung, 7.01 µM. The GI50 in the assay with OVCAR-4 ovarian is 3.89 µM; with MALME-3M melanoma, 2 µM; with U251 CNS it was 12.7 µM; in the assay on HOP-92 NSCLC, 1.6 µM. Moreover, the TGI with NCI/ADR-RES ovarian was determined as 31.2 µM; in the assay with SF-539 CNS it was 6.57 µM; with ACHN renal, 4.28 µM; in the assay with HOP-62 NSCLC, 28.2 µM; in the assay on SNB-19 CNS, 25.2 µM; in the assay on NCI-H23 lung, 23.5 µM. Also, the TGI in the assay on OVCAR-4 ovarian was found to be 18.9 µM; in the assay on MALME-3M melanoma it was 4.29 µM; in the assay on U251 CNS, 25.4 µM; in the assay with HOP-92 NSCLC, 3.7 µM.

For the molecule `NC(=O)c1ccc(I)c(N=O)c1`, the GI50 with NCI/ADR-RES ovarian was 44.9 µM; in the assay on SF-539 CNS it was 32.3 µM; with ACHN renal it was 30.8 µM; with HOP-62 NSCLC, 57.6 µM; with SNB-19 CNS, greater than 100 µM; in the assay with NCI-H23 lung it was 51.7 µM. For the same molecule, the GI50 in the assay on OVCAR-4 ovarian is 17.7 µM; in the assay on MALME-3M melanoma it was 34 µM; in the assay with U251 CNS it was 18.6 µM; in the assay on HOP-92 NSCLC it was 67.1 µM. The TGI with NCI/ADR-RES ovarian, with SF-539 CNS, in the assay with ACHN renal, in the assay with HOP-62 NSCLC, with SNB-19 CNS and with NCI-H23 lung was greater than 100 µM each time. The TGI with OVCAR-4 ovarian was 43.5 µM; with MALME-3M melanoma, greater than 100 µM; with U251 CNS, 36.8 µM; in the assay with HOP-92 NSCLC, greater than 100 µM.

For `Cc1ccc(C(CC(=O)c2ccccc2)C2C(=O)NC(=O)NC2=O)cc1` (stereo not given), the GI50 in the assay with NCI/ADR-RES ovarian, in the assay with SF-539 CNS, in the assay with ACHN renal, in the assay with HOP-62 NSCLC, in the assay with SNB-19 CNS and in the assay on NCI-H23 lung was greater than 100 µM throughout. Further, the GI50 with OVCAR-4 ovarian, in the assay with MALME-3M melanoma, in the assay with U251 CNS and in the assay on HOP-92 NSCLC was greater than 100 µM throughout. Moreover, the TGI with NCI/ADR-RES ovarian, with SF-539 CNS, in the assay with ACHN renal, in the assay on HOP-62 NSCLC, with SNB-19 CNS and in the assay on NCI-H23 lung was greater than 100 µM in each case. The TGI in the assay on OVCAR-4 ovarian, in the assay with MALME-3M melanoma, with U251 CNS and in the assay with HOP-92 NSCLC was greater than 100 µM in each case.

With `O=c1oc(Cl)c(Cl)c2ccccc12`, the GI50 in the assay on NCI/ADR-RES ovarian was 18.1 µM; in the assay on SF-539 CNS, 17 µM; in the assay with ACHN renal, 16.1 µM; in the assay with HOP-62 NSCLC it was 25.9 µM; with SNB-19 CNS it was 27.9 µM; with NCI-H23 lung, 50.5 µM. Also, the GI50 with OVCAR-4 ovarian was 30 µM; in the assay with MALME-3M melanoma it was 50 µM; in the assay on U251 CNS it was 21.2 µM; in the assay on HOP-92 NSCLC, 3.25 µM. For the same molecule, the TGI was 41.3 µM in the assay on NCI/ADR-RES ovarian; 38.5 µM in the assay on SF-539 CNS; 39.7 µM in the assay on ACHN renal; 48.9 µM in the assay with HOP-62 NSCLC; greater than 100 µM in the assay on SNB-19 CNS; greater than 100 µM with NCI-H23 lung. For the same molecule, the TGI in the assay on OVCAR-4 ovarian was greater than 100 µM; with MALME-3M melanoma it was greater than 100 µM; in the assay with U251 CNS it was 52.1 µM; in the assay with HOP-92 NSCLC it was 27.9 µM.

Consider `CCCCC[C@H]1C/C=C2/C(=O)C=C[C@@H]2C/C=C\CCCC(=O)O[C@@H](CCCCC)C/C=C2/C(=O)C=C[C@@H]2C/C=C\CCCC(=O)O1`, for which the GI50 is 0.776 µM with NCI/ADR-RES ovarian; 0.423 µM in the assay on SF-539 CNS; 0.373 µM in the assay on ACHN renal; 0.536 µM with HOP-62 NSCLC; 0.318 µM in the assay on SNB-19 CNS; 0.289 µM with NCI-H23 lung. For the same molecule, the GI50 was 0.475 µM in the assay with OVCAR-4 ovarian, 0.338 µM with MALME-3M melanoma, 0.151 µM in the assay on U251 CNS and 0.593 µM with HOP-92 NSCLC. The TGI in the assay with NCI/ADR-RES ovarian is 4.57 µM; with SF-539 CNS, 1.09 µM; in the assay on ACHN renal it was 0.755 µM; in the assay with HOP-62 NSCLC it was 1.29 µM; in the assay with SNB-19 CNS, 0.809 µM; in the assay with NCI-H23 lung it was 0.822 µM. Further, the TGI with OVCAR-4 ovarian was 2.67 µM; in the assay on MALME-3M melanoma it was 0.885 µM; in the assay with U251 CNS, 0.473 µM; in the assay with HOP-92 NSCLC, 1.2 µM.

In the case of `Cc1cc(NCCN(C(C)C)C(C)C)nc(/N=C(\N)Nc2ccc(Cl)c(C(F)(F)F)c2)n1`, the GI50 was 1.67 µM in the assay on NCI/ADR-RES ovarian; 0.179 µM in the assay with SF-539 CNS; 0.381 µM in the assay on ACHN renal; 0.748 µM in the assay with HOP-62 NSCLC; 1.48 µM in the assay with SNB-19 CNS; 1.49 µM in the assay with NCI-H23 lung. Besides, the GI50 in the assay on OVCAR-4 ovarian was 0.697 µM; in the assay with MALME-3M melanoma, 0.183 µM; with U251 CNS, 0.194 µM; in the assay with HOP-92 NSCLC, 0.163 µM. The TGI with NCI/ADR-RES ovarian came out at 3.45 µM; in the assay with SF-539 CNS, 0.329 µM; in the assay with ACHN renal, 1.06 µM; with HOP-62 NSCLC, 2 µM; in the assay with SNB-19 CNS, 2.83 µM; in the assay on NCI-H23 lung, 3.08 µM. In addition, the TGI worked out at 1.97 µM in the assay with OVCAR-4 ovarian, 0.403 µM with MALME-3M melanoma, 0.4 µM in the assay with U251 CNS and 1.01 µM in the assay with HOP-92 NSCLC.
